“Also recorded” adds a separate entry of the source. Non-standard residues stand in square brackets, D forms with d. Residues, ends and D or L forms follow the SMILES beside them. *: point of attachment. Nle = CCCC[C@H](N)C(=O)O; Cbz = O=C(OCc1ccccc1)*
Columns and labels:
HUVEC = assay: wtAAVegfp transduction, eGFP fluorimetry; assay type: cell-based, human; settings: 250 transduction units/cell, 40 μM LLnL, 4 μM mg132, 5 μg/ml aphidicolin, 10 μM etoposide
Source text: FIG. 6 illustrates the efficiency of AAV-mediated gene transfer to ECs. (A) HUVEC and HeLa cells were mock infected (open bars) or infected with 1000 transduction units/cell of wtAAVegfp (filled bars) and analyzed for eGFP expression by fluorimetry and fluorescence microscopy. (B) ECs were infected with 250 transduction units/cell wtMVegfp in the presence or absence of mg132, LLnL, genistein, hydroxyurea, aphidicolin, etoposide, or camptothecin and harvested for quantification of eGFP by fluorimetry at either 24 h or 96 h postinfection. RFU, relative fluorescent units. *Indicates statistical significance from wtMVegfp alone at the same time point. Representative of three independent experiments;
Cells were plated to reach 80% confluence 24 h later. In each case an accurate cell count was performed immediately before infection. Cells were infected with increasing doses of AAV vectors in the presence or absence of helper adenovirus (Ad) as indicated. For each cell type, Ad co-infection was performed at a dose that mediated 70% transduction, based on prior infection efficiency experiments performed on each cell type using a LacZ-expressing Ad, RAd35. At the required time point, cells were washed and lysed in 0.2% Triton X-100 in PBS and stored at −20° C. For dissection of AAV transduction of EC, cells were incubated with AAV in the absence or presence of 40 μM LLnL, 4 μM mg132, 50 μM genistein, 40 mM hydroxyurea, 5 μg/ml aphidicolin, 10 μM etoposide, 0.1 μM camptothecin or 150 nM bafilomycin A2.
Cells were infected as indicated above in the absence or presence of 1 IU heparin/[…] genomic particles and analyzed for gene expression 72 h later. In addition a column assay was carried out. AAVwt or AAVsig were loaded onto heparin columns (immobilized on cross-linked 4% beaded agarose; Sigma) that had been prepacked and equilibrated according to the manufacturer's recommendations. Purified viral preparations (6.4×10^11 particles) in 200 μl were loaded, and the flow-through, wash, and 1 M NaCl eluates were collected and analyzed by dot-blot hybridization using twofold serial dilutions. For quantification of wtAAVegfp-mediated gene transfer to vascular EC, aliquots of cell extracts were analyzed in triplicate for eGFP expression using a Wallac Victor2 multi-counter with recombinant eGFP (Clontech, Basingstoke, Hants., UK) as a standard. All data were analyzed as eGFP relative light units (RFU)/mg protein. For analysis of AAVsig and AAVwtdriven lacZ expression, aliquots of cell extracts were analyzed for beta-galactosidase expression using Galacto-Light Plus (Tropix, Mass., U.S.A.) as per manufacturer's recommendations using recombinant beta-galactosidase (Sigma, UK) as a standard. All data were expressed as RLU/mg protein.

HEC [1] = assay: Binding of homogenous candidate phage to cells; design: species or system human; settings: 10^7 pfu
Protocol: (§1) 10^7 pfu of homogenous phage populations containing candidate peptides were panned on human endothelial cells (HEC), vascular smooth muscle cells (VSMC) and HepG2 hepatocytes, binding from a control peptide-less phage, subtracted and recovery calculated and expressed as a percentage of HEC;
(§2) Phage libraries were amplified, purified and titered according to manufacturers protocols. HEC were plated into 6 well plates and cultured until 2 days post-confluence. 1×10^9 pfu of input phage library was used to pan confluent cultures of HEC (passage 2-4) in triplicate. First we used a direct screening approach and biopanned HEC for 4 rounds. Second we biopanned on HEC after biopanning for 1 hour on 2 successive cultures of VSMC, HepG2 and peripheral blood mononuclear cells (pre-clearing steps). Prior to biopanning growth media was changed to 1 ml DMEM containing 1% bovine serum albumin (BSA) and the plates were incubated at 4° C. for 15 minutes. For HEC, 1×10^9 pfu of pre-cleared or stock phage library was incubated with cells for 1 hour at 4° C. Cells were washed 5 times in ice-cold PBS/1% BSA for 5 minutes per wash. Weakly associated phage were eluted in 1 ml 0.2 M glycine (pH 2.2) for 10 minutes on ice, followed by neutralisation with 200 μl Tris-HCl (pH 8.0). High affinity phage (tightly-bound phage) were isolated by lysing the cells in 1 ml of 30 mM Tris-HCL/1 mM EDTA (pH 8.0) for 1 hour on ice. Cell debris was removed and the supernatant recovered. Phage were amplified and titered between each round to ensure that 10^9 pfu of input phage were used at the start of each successive round. Following completion of biopanning, E. coli ER2537 were infected with the resulting phage, plated and individual plaques picked, amplified, and sequenced. For further binding studies, high titer homogenous populations of each phage were prepared. Briefly, 1×10^7 pfu of each phage were biopanned on HEC, VSMC and HepG2 cells for 30 minutes at 4° C. […] The percentage recovery was calculated for each cell type using a peptide-less phage to allow for background binding.

HepG2 hepatocytes = assay: Binding of homogenous candidate phage to cells; design: species or system human
Protocol: as §1, §2

VSMC = assay: Binding of homogenous candidate phage to cells; design: species or system human
Protocol: as §1, §2

HEC [2] = settings: peptide fused to an antibody against the Ad5 fiber knob; reference [47]; cited from earlier work

| Compound | effect of agent on wtAAVegfp reporter gene expression versus infection without treatment (HUVEC) | also measured |
| --- | --- | --- |
| CCCC[C@@H](C=O)NC(=O)[C@H](CC(C)C)NC(=O)[C@H](CC(C)C)NC(C)=O [LLnL] (Ac-Leu-Leu-[Nle]-aldehyde) | increase |  |
| C[C@@]1(CO)[C@H](O)CC[C@@]2(C)[C@H]1CC[C@H]1C[C@@H]3C[C@@]12CC[C@]3(O)CO [aphidicolin] | enhanced |  |
| COc1cc([C@@H]2c3cc4c(cc3[C@@H](O[C@@H]3O[C@@H]5CO[C@@H](C)O[C@H]5[C@H](O)[C@H]3O)[C@H]3COC(=O)[C@H]23)OCO4)cc(OC)c1O [etoposide] | enhanced |  |
| CC(C)C[C@@H](C=O)NC(=O)[C@H](CC(C)C)NC(=O)[C@H](CC(C)C)NC(=O)OCc1ccccc1 [mg132] (Cbz-Leu-Leu-Leu-aldehyde) | increase |  |
| SIGYPLP |  | binding to HEC (HEC [1]): high-level binding; binding to HepG2 hepatocytes compared to HEC (HepG2 hepatocytes): limited binding; also recorded: low-level affinity; binding to VSMC compared to HEC (VSMC): limited binding; also recorded: low-level affinity; adenoviral gene transfer into human EC versus non-targeted Ad (HEC [2]): 15 fold |
